Patent publication US12502362B2, “Inhibitors of nucleotidyltransferase superfamily enzymes as antibiotics” (priority 2017, dated 2025)
Values after ≈ are worked out from the molar mass of the structure shown. Where two headings read alike, the source gives them in different places.

Key:
[1] = Cytotoxicity assay (CC50), MTS; assay type: cell-based, human; conditions: human, HepG2-derived hepatoblastoma cell line (HEPDES19), HEPDES19 cells
Procedure: (§1) To further characterize the compounds, the minimal inhibitory concentration (MIC80) were determined for selected compounds. MIC80 is defined as the compound concentration at which ≥80% bacterial growth is inhibited compare to untreated controls. Meanwhile, for the selected compounds, cytotoxicity assays (CC50) were performed on a HepG2-derived hepatoblastoma cell line (HEPDES19). […] For CC50 evaluation, soluble tetrazolium dye (MTS) was used to measure mitochondrial toxicity in a human hepatoblastoma cell line (18). The bacteria (E. coli, S. saprophyticus and A. baumannii) used in MIC80 measurements were the same as that in the primary screening, but for Staphylococcus, S. aureus is used primarily because it is a common pathogen in Staphylococcaeae family, while S. saprophyticus is part of the normal human flora.

E. coli (ATCC 35218) = experiment: microbe, parasite or virus in culture; assay type: cell-based; conditions: for MIC80: Escherichia coli, ATCC35218, read-out: MIC80 E. coli, E. coli ATCC 35218; for MIC80 E. coli: E. coli ATCC 35218
Procedure: as §1

[2] = test system: Acinetobacter baumannii (Abl, from a patient); experiment: microbe, parasite or virus in culture; assay type: cell-based; conditions: for MIC80 A. baumannii: A. baumannii Ab1, MDR patient isolate; for MIC80: Acinetobacter baumannii, read-out: MIC80 A. baumannii, A. baumannii Ab1, MDR patient isolate
Procedure: as §1

[3] = test system: S. aureus and/or S. saprophyticus; experiment: MIC80 on S. aureus and/or S. saprophyticus; assay type: cell-based; conditions: read-out: MIC80 against S. aureus and/or S. saprophyticus
Procedure: as §1, with “(HEPDES19). […] For the MIC80 measurements, a 1.5 fold dilution series of the compounds was prepared in Mueller-Hinton II broth.” for “(HEPDES19).”, “flora. S. aureus (ATCC 29213) is methicillin-sensitive Staphylococcus aureus (MSSA) strain and it was used as a model strain to measure the MIC80.” for “flora.”

S. aureus (ATCC 29213) = experiment: MIC80 on S. aureus; assay type: cell-based, Staphylococcus aureus; conditions: ≥80% growth inhibition; for MIC80: Staphylococcus aureus, ATCC 29213 / MSSA, read-out: MIC80 S. aureus, S. aureus ATCC 29213 (MSSA); for MIC80 S. aureus: S. aureus ATCC 29213 (MSSA)
Procedure: as §1

[4] = test system: HepG2-derived hepatoblastoma cell line (HEPDES19); experiment: Cytotoxicity assay (CC50), MTS; assay type: cell-based, human; conditions: HEPDES19 cells
Procedure: as §1

[5] = test system: Staphylococcus saprophyticus (ATCC BAA-750); experiment: MIC80 on S. saprophyticus; assay type: cell-based; conditions: Staphylococcus saprophyticus, ATCCBAA750; S. saprophyticus ATCC BAA-750; read-out: MIC80 S. sapro
Procedure: as §1

[6] = test system: S. aureus ATCC strains and MRSA; assay type: cell-based, Staphylococcus aureus
[7] = test system: Coagulase negative Staphylococcus; experiment: Antibiotic susceptibility of coagulase negative Staphylococcus strains; assay type: cell-based
Staphylococcus hominis = assay type: cell-based
Procedure: (§2) It was also tested whether compounds #63 and #285 can inhibit other coagulase-negative Staphylococcus (CNS) including S. epidermidis, S. hominis, etc. […].

[8] = test system: Staphylococcus epidermidis; assay type: cell-based
Procedure: as §2

SMILES: Cc1cc(O)c(O)c(=O)c(O)c1 [Compound 272]
- CC50 [1]: 10 µM
- MIC80 (E. coli (ATCC 35218)): 44.4 µM (≈ 7.47 µg/mL)
- MIC80 A. baumannii [2]: 29.6 µM (≈ 4.98 µg/mL)
- MIC80 [2]: < 30 µM

SMILES: O=C(Oc1cccccc1=O)c1cccc(Cl)c1 [Compound 282]
- CC50 [1]: > 50 µM
- MIC80 (E. coli (ATCC 35218)): > 100 µM
- MIC80 [3]: < 20 µM
- MIC80 (S. aureus (ATCC 29213)): 18.2 µM (≈ 4.74 µg/mL)

SMILES: Cc1cccc(C(=O)Oc2cccccc2=O)c1 [Compound 283]
- CC50 [1]: > 50 µM
- CC50 [4]: ≥ 100 µM
- MIC80 (E. coli (ATCC 35218)): > 100 µM
- MIC80 [3]: < 20 µM
- MIC80 (S. aureus (ATCC 29213)): 15.4 µM (≈ 3.7 µg/mL)

SMILES: Cc1cc(O)c(=O)c(O)cc1C(=O)c1cccs1 [Compound 308]
- CC50 [1]: < 50 µM
- CC50 [4]: 26 µM
- MIC80 [5]: 29.6 µM (≈ 7.76 µg/mL)
- MIC80 E. coli (E. coli (ATCC 35218)): 24.7 µM (≈ 6.48 µg/mL)
- MIC80 (E. coli (ATCC 35218)): < 30 µM
- MIC80 [2]: 32.1 µM (≈ 8.42 µg/mL)
- MIC80 (S. aureus (ATCC 29213)): 44.4 µM (≈ 11.6 µg/mL)

SMILES: Cc1cc(O)c(=O)c(O)cc1C(=O)C1CC1 [Compound 310]
- CC50 [1]: > 50 µM
- MIC80 [5]: 44.4 µM (≈ 9.78 µg/mL)
- MIC80 E. coli (E. coli (ATCC 35218)): 29.6 µM (≈ 6.52 µg/mL)
- MIC80 (E. coli (ATCC 35218)): < 30 µM
- MIC80 A. baumannii [2]: 29.6 µM (≈ 6.52 µg/mL)
- MIC80 [2]: < 30 µM

SMILES: Cc1cc(O)c(=O)c(O)cc1C(=O)c1ccccc1O [Compound 311]
- CC50 [1]: < 50 µM
- CC50 [4]: 32 µM
- MIC80 E. coli (E. coli (ATCC 35218)): 29.6 µM (≈ 8.06 µg/mL)
- MIC80 (E. coli (ATCC 35218)): < 30 µM
- MIC80 [2]: 44.4 µM (≈ 12.1 µg/mL)
- MIC80 (S. aureus (ATCC 29213)): 66.7 µM (≈ 18.2 µg/mL)

SMILES: CC(=O)c1c(C)cc(O)c(=O)c(O)c1-c1ccc2ccccc2c1 [Compound 332]
- CC50 [4]: 38 µM
- MIC80 S. aureus (S. aureus (ATCC 29213)): 19.8 µM (≈ 6.34 µg/mL)

SMILES: O=c1c(Br)cc(Br)cc(Br)c1O [Compound 350]
- CC50 [1]: < 50 µM
- CC50 [4]: 45 µM
- MIC80 (E. coli (ATCC 35218)): 100 µM (≈ 35.9 µg/mL)
- MIC80 [2]: 100 µM (≈ 35.9 µg/mL)
- MIC80 [3]: < 20 µM
- MIC80 (S. aureus (ATCC 29213)): 2.6 µM (≈ 0.933 µg/mL)

SMILES: O=C(O)c1cn(Cc2cccc3ccccc23)c2ccccc2c1=O [Compound 432]
- MIC80 [3]: < 20 µM
- MIC80 (S. aureus (ATCC 29213)): 13.2 µM (≈ 4.35 µg/mL)

SMILES: O=C(Cc1ccccc1)Sc1cccccc1=O [Compound 680]
- CC50 [4]: > 100 µM
- MIC80 E. coli (E. coli (ATCC 35218)): 19.8 µM (≈ 5.08 µg/mL)
- MIC80 S. aureus (S. aureus (ATCC 29213)): 29.6 µM (≈ 7.59 µg/mL)

SMILES: O=C(Sc1cccccc1=O)c1ccc(C(F)(F)F)cc1 [Compound 682]
- CC50 [4]: 82.9 µM
- MIC80 E. coli (E. coli (ATCC 35218)): 66.7 µM (≈ 20.7 µg/mL)
- MIC80 S. aureus (S. aureus (ATCC 29213)): 19.8 µM (≈ 6.14 µg/mL)

SMILES: Cc1ccc(S(=O)(=O)Oc2cc(C(C)C)cccc2=O)cc1 [Compound 688]
- CC50 [4]: 27.5 µM
- MIC80 E. coli (E. coli (ATCC 35218)): >100 µM
- MIC80 S. aureus (S. aureus (ATCC 29213)): 11.6 µM (≈ 3.69 µg/mL)

SMILES: CN[C@H](CC(C)C)C(=O)N[C@H]1C(=O)N[C@@H](CC(N)=O)C(=O)N[C@H]2C(=O)N[C@H]3C(=O)N[C@H](C(=O)N[C@H](C(=O)O)c4cc(O)cc(O)c4-c4cc3ccc4O)[C@H](O)c3ccc(c(Cl)c3)Oc3cc2cc(c3O[C@@H]2O[C@H](CO)[C@@H](O)[C@H](O)[C@H]2O[C@H]2C[C@](C)(N)[C@H](O)[C@H](C)O2)Oc2ccc(cc2Cl)[C@H]1O [VAN, vancomycin]
- Antibiotic susceptibility ([6]; S. aureus ATCC 25923): S
- Antibiotic susceptibility ([6]; S. aureus ATCC 29213): S
- Antibiotic susceptibility ([6]; S. aureus ATCC BAA 976): S
- Antibiotic susceptibility ([6]; S. aureus ATCC BAA 977): S
- Antibiotic susceptibility ([6]; S. aureus ATCC BAA 1026): S
- Antibiotic susceptibility ([6]; Sa1 (MRSA)): S
- Antibiotic susceptibility ([6]; Sa2 (MRSA)): S
- Antibiotic susceptibility ([6]; Sa3 (MRSA)): S
- Antibiotic susceptibility ([6]; Sa5 (MRSA)): S
- Antibiotic susceptibility ([6]; Sa6 (MRSA)): S
- Antibiotic susceptibility ([6]; Sa7 (MRSA)): S
- Antibiotic susceptibility ([6]; Sa8 (MRSA)): S
- Antibiotic susceptibility ([6]; Sa9 (MRSA)): S
- Antibiotic susceptibility ([6]; Sa10 (MRSA)): S
- Antibiotic susceptibility ([6]; Sa11 (MRSA)): S
- Antibiotic susceptibility ([6]; Sa12 (MRSA)): S
- Antibiotic susceptibility ([6]; Sa14 (MRSA)): S
- Antibiotic susceptibility ([6]; Sa15 (MRSA)): S
- Antibiotic susceptibility ([6]; Sa16 (MRSA)): S
- Antibiotic susceptibility ([6]; Sa17 (MRSA)): S
- Antibiotic susceptibility ([6]; Sa18 (MRSA)): S
- Antibiotic susceptibility ([6]; Sa19 (MRSA)): S
- Antibiotic susceptibility ([6]; Sa20 (MRSA)): S
- Antibiotic susceptibility ([6]; Sa21 (MRSA)): S
- Antibiotic susceptibility ([6]; Sa22 (MRSA)): S
- Antibiotic susceptibility ([6]; Sa23 (MRSA)): S
- Antibiotic susceptibility ([7]; CNS1 (Coagulase negative Staphylococcus)): S
- Antibiotic susceptibility ([7]; CNS2 (Coagulase negative Staphylococcus)): S
- Antibiotic susceptibility (Staphylococcus hominis; Sh1 (Staphylococcus hominis)): S
- Antibiotic susceptibility (Staphylococcus hominis; Sh2 (Staphylococcus hominis)): S
- Antibiotic susceptibility (Staphylococcus hominis; Sh3 (Staphylococcus hominis)): S
- Antibiotic susceptibility ([8]; Se1 (Staphylococcus epidermidis)): S
- Antibiotic susceptibility ([8]; Se2 (Staphylococcus epidermidis)): S
- Antibiotic susceptibility ([8]; Se3 (Staphylococcus epidermidis)): S
- Antibiotic susceptibility ([8]; Se4 (Staphylococcus epidermidis)): S
- Antibiotic susceptibility ([8]; Se5 (Staphylococcus epidermidis)): S
